According to patent US20240376097A1, “BCL-2 Inhibitor” (BeiGene Ltd., priority 2020, published 2024):

What was measured:
[1] = system: RS4;11 (BCL-2 dependent acute lymphoblastic leukemia cell line); assay: RS4;11 Cell Proliferation Assay; format: cell-based; details: Homo sapiens, RS4-11, RS4;11 cells, read-out: Cellular proliferation assay (IC50, nM) RS4
In short: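 RS4;11 cells, 50,000 per well in RPMI-1640 with 10% FBS, treated 48 h at 37 °C with a 10-point dilution series topping at 1 μM. Viability read by CellTiter-Glo ATP luminescence; mean IC50 reported.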

[2] = molecular target: Recombinant human Bcl-2 protein (Homo sapiens (Human), UniProt P10415); assay: Bcl-2 TR-FRET Assay; format: binding; details: Bcl-2 wild type, TR-FRET; read-out: Biochemical assay (IC50, nM) Bcl-2 WT
In short: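 0.05 nM Bcl-2 pre-incubated 0.5 h at room temperature with 10-point compound dilutions (top final 1, 0.1, 0.02 or 0.01 uM) in 20 mM potassium phosphate pH 7.5, 50 mM NaCl, 1 mM EDTA, 0.05% Tween-20, 0.01% BSA; FITC-Bak peptide (0.5 nM) and anti-6His Tb cryptate added, 1 h. IC50 from four-parameter logistic fit.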

[3] = molecular target: recombinant human Bcl-2-G101V protein (Homo sapiens (Human), UniProt P10415, G101V); assay: Bcl-2-G101V TR-FRET Assay; format: binding; details: Bcl-2 G101V mutant, TR-FRET; read-out: Biochemical assay (IC50, nM) Bcl-2 G101V
In short: (§1)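 Displacement of ligand from recombinant human Bcl-2-G101V measured by TR-FRET (ex337 nm, em490/520 nm), inhibition derived from the 490/520 ratio across compound titrations. IC50 from four-parameter logistic fit.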

[4] = system: recombinant human Bcl-2-G101V protein; assay: Bcl-2-G101V TR-FRET Assay; format: binding; details: ratio of biochemical IC50 Bcl-2 G101V / Bcl-2 WT
In short: as §1

[5] = system: BCL-2 G101V knock-in cell line H96 (derive from RS4;11); assay: Bcl 2-G101V Knock-In RS4;11 Cell Proliferation Assay; format: cell-based; details: Homo sapiens, RS4;11 Bcl-2 G101V knock-in clone H96, 48 hrs, CellTiter-GLO, read-out: Cellular proliferation assay (IC50, nM) RS4
In short: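 H96, a CRISPR-generated RS4;11 clone carrying BCL2-G101V knock-in (WES/RNA-seq validated), seeded 50,000 per well and exposed 48 h at 37 °C to 10-point dilutions topping at 1 or 10 μM. Viability by CellTiter-Glo luminescence; mean IC50.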

| SMILES | IC50 [1] | IC50 [2] | IC50 [3] | Ratio of Bcl-2 G101V/WT [4] | IC50 [5] |
| --- | --- | --- | --- | --- | --- |
| CC(C)c1ccccc1C1CN(Cc2cccc3c2N(C)C(=O)CO3)CCN1C1CC2(CCN(c3ccc(C(=O)NS(=O)(=O)c4ccc(NC[C@H]5CC[C@](C)(O)CC5)c([N+](=O)[O-])c4)c(Oc4cnc5[nH]ccc5c4)c3)CC2)C1 (stereo partly drawn) [Example 216, 2-((1H-pyrrolo[2,3-b]pyridin-5-yl)oxy)-N-((4-((((1r,4r)-4-hydroxy-4-methylcyclohexyl)methyl)amino)-3-nitrophenyl)sulfonyl)-4-(2-(2-(2-isopropylphenyl)-4-((4-methyl-3-oxo-3,4-dihydro-2H-benzo[b] [1,4]oxazin-5-yl)methyl)piperazin-1-yl)-7-azaspiro[3.5]nonan-7-yl) benzamide] | 0.33 nM | 0.19 nM | 0.81 nM | 4.2 | 2.76 nM |
| COc1ccc(CN2CCN(C3CC4(CCN(c5ccc(C(=O)NS(=O)(=O)c6cc7c(c([N+](=O)[O-])c6)N[C@H](C[C@H]6CC[C@H](O)CC6)CO7)c(Oc6cnc7[nH]ccc7c6)c5)CC4)C3)[C@H](c3ccccc3C(C)C)C2)cc1 [Example 221] | 0.16 nM | 0.08 nM | 0.27 nM | 3.4 | 0.92 nM |
| COc1cc(CN2CCN(C3CC4(C3)CN(c3ccc(C(=O)NS(=O)(=O)c5ccc(NC[C@H]6CC[C@](C)(O)CC6)c([N+](=O)[O-])c5)c(Oc5cnc6[nH]ccc6c5)c3)C4)[C@H](c3ccccc3C(C)C)C2)cc(C)c1OC [Example 234, 2-((1H-pyrrolo[2,3-b]pyridin-5-yl)oxy)-4-(6-((R)-4-(3,4-dimethoxy-5-methylbenzyl)-2-(2-isopropylphenyl)piperazin-1-yl)-2-azaspiro[3.3]heptan-2-yl)-N-((4-((((1r,4r)-4-hydroxy-4-methylcyclohexyl)methyl)amino)-3-nitrophenyl)sulfonyl)benzamide] | 0.09 nM | 0.087 nM | 0.32 nM | 3.7 | 0.35 nM |
| COc1ccc(CN2CCN(C3CC4(CCN(c5ccc(C(=O)NS(=O)(=O)c6ccc(NC[C@H]7CC[C@](C)(O)CC7)c([N+](=O)[O-])c6)c(Oc6cnc7[nH]ccc7c6)c5)CC4)C3)C(c3cc(F)ccc3C(C)C)C2)cc1 (stereo partly drawn) [Example 235] | 0.27 nM | 0.28 nM | 1.1 nM | 3.8 | 1.21 nM |
| CC(C)c1ccccc1[C@@H]1CN(Cc2ccc(F)c(F)c2)CCN1C1CC2(C1)CN(c1ccc(C(=O)NS(=O)(=O)c3ccc(NC[C@H]4CC[C@](C)(O)CC4)c([N+](=O)[O-])c3)c(Oc3cnc4[nH]ccc4c3)c1)C2 [Example 244, 2-((1H-pyrrolo[2,3-b]pyridin-5-yl)oxy)-4-(6-((R)-4-(3,4-difluorobenzyl)-2-(2-isopropylphenyl)piperazin-1-yl)-2-azaspiro[3.3]heptan-2-yl)-N-((4-((((1r,4r)-4-hydroxy-4-methylcyclohexyl)methyl)amino)-3-nitrophenyl)sulfonyl)benzamide] | 0.2 nM | 0.25 nM | 0.83 nM | 3.3 | 1.36 nM |
| COc1cc(CN2CCN(C3CC4(C3)CN(c3ccc(C(=O)NS(=O)(=O)c5ccc(NC[C@H]6CC[C@](C)(O)CC6)c([N+](=O)[O-])c5)c(Oc5cnc6[nH]ccc6c5)c3)C4)[C@H](c3ccccc3C(C)C)C2)cc(F)c1OC [Example 245, 2-((1H-pyrrolo[2,3-b]pyridin-5-yl)oxy)-4-(6-((R)-4-(3-fluoro-4,5-dimethoxybenzyl)-2-(2-isopropylphenyl)piperazin-1-yl)-2-azaspiro[3.3]heptan-2-yl)-N-((4-((((1r,4r)-4-hydroxy-4-methylcyclohexyl)methyl)amino)-3-nitrophenyl)sulfonyl)benzamide] | 0.15 nM | 0.13 nM | 0.32 nM | 2.5 | 0.53 nM |
| [2H]C([2H])([2H])Oc1ccc(CN2CCN(C3CC4(CCN(c5ccc(C(=O)NS(=O)(=O)c6ccc(NC[C@H]7CC[C@](C)(O)CC7)c([N+](=O)[O-])c6)c(Oc6cnc7[nH]cc(Cl)c7c6)c5)CC4)C3)[C@H](c3ccccc3C(C)C)C2)cc1OC([2H])([2H])[2H] [Example 250, 4-(2-((R)-4-(3,4-bis(methoxy-d3)benzyl)-2-(2-isopropylphenyl)piperazin-1-yl)-7-azaspiro[3.5]nonan-7-yl)-2-((3-chloro-1H-pyrrolo[2,3-b]pyridin-5-yl)oxy)-N-((4-((((1r,4r)-4-hydroxy-4-methylcyclohexyl)methyl)amino)-3-nitrophenyl)sulfonyl)benzamide] | 0.16 nM | 0.09 nM | 0.52 nM | 5.7 | 1.06 nM |
| COc1cc(CN2CCN(C3CC4(CCN(c5ccc(C(=O)NS(=O)(=O)c6ccc(NC[C@H]7CC[C@](C)(O)CC7)c([N+](=O)[O-])c6)c(Oc6cnc7[nH]cc(Cl)c7c6)c5)CC4)C3)[C@H](c3ccccc3C(C)C)C2)ccc1C1CC1 [Example 252, 2-((3-chloro-1H-pyrrolo[2,3-b]pyridin-5-yl)oxy)-4-(2-((R)-4-(4-cyclopropyl-3-methoxybenzyl)-2-(2-isopropylphenyl)piperazin-1-yl)-7-azaspiro[3.5]nonan-7-yl)-N-((4-((((1r,4r)-4-hydroxy-4-methylcyclohexyl)methyl)amino)-3-nitrophenyl)sulfonyl)benzamide] | 0.26 nM | 1.2 nM | 3.5 nM | 2.8 | 2.6 nM |
| [2H]C([2H])([2H])Oc1ccc(CN2CCN(C3CC4(CCN(c5ccc(C(=O)NS(=O)(=O)c6ccc(NC[C@H]7CC[C@](C)(O)CC7)c([N+](=O)[O-])c6)c(Oc6cnc7[nH]ccc7c6)c5)CC4)C3)[C@H](c3ccccc3C(C)C)C2)cc1OC([2H])([2H])[2H] [Example 253, 2-((1H-pyrrolo[2,3-b]pyridin-5-yl)oxy)-4-(2-((R)-4-(3,4-bis(methoxy-d3)benzyl)-2-(2-isopropylphenyl)piperazin-1-yl)-7-azaspiro[3.5]nonan-7-yl)-N-((4-((((1r,4r)-4-hydroxy-4-methylcyclohexyl)methyl)amino)-3-nitrophenyl)sulfonyl)benzamide] | 0.11 nM | 0.027 nM | 0.089 nM | 3.3 | 0.29 nM |
| COc1ccc(CN2CCN(C3CC4(C3)CN(c3ccc(C(=O)NS(=O)(=O)c5ccc(NC[C@H]6CC[C@](C)(O)CC6)c([N+](=O)[O-])c5)c(Oc5cnc6[nH]ccc6c5)c3)C4)[C@H](c3ccccc3C(C)C)C2)cn1 [Example 254, 2-((1H-pyrrolo[2,3-b]pyridin-5-yl)oxy)-N-((4-((((1r,4r)-4-hydroxy-4-methylcyclohexyl)methyl)amino)-3-nitrophenyl)sulfonyl)-4-(6-((R)-2-(2-isopropylphenyl)-4-((6-methoxypyridin-3-yl)methyl)piperazin-1-yl)-2-azaspiro[3.3]heptan-2-yl)benzamide] | 0.09 nM | 0.017 nM | 0.067 nM | 3.9 | 0.25 nM |
| CC(C)c1ccccc1[C@@H]1CN(CC2C3CC4CC(C3)CC2C4)CCN1C1CC2(CCN(c3ccc(C(=O)NS(=O)(=O)c4ccc(NC[C@H]5CC[C@](C)(O)CC5)c([N+](=O)[O-])c4)c(Oc4cnc5[nH]ccc5c4)c3)CC2)C1 (stereo partly drawn) [Example 259, 2-((1H-pyrrolo[2,3-b]pyridin-5-yl)oxy)-4-(2-((2R)-4-(((1R,3S,5R)-adamantan-2-yl)methyl)-2-(2-isopropylphenyl)piperazin-1-yl)-7-azaspiro[3.5]nonan-7-yl)-N-((4-((((1r,4r)-4-hydroxy-4-methylcyclohexyl)methyl)amino)-3-nitrophenyl)sulfonyl)benzamide] | 0.55 nM | 0.91 nM | 3.4 nM | 3.8 | 4.2 nM |
| COc1cc(CN2CCN(C3CC4(CCN(c5ccc(C(=O)NS(=O)(=O)c6ccc(NC[C@H]7CC[C@](C)(O)CC7)c([N+](=O)[O-])c6)c(Oc6cnc7[nH]ccc7c6)c5)CC4)C3)[C@H](c3ccccc3C(C)C)C2)ccc1C(C)C [Example 263, 2-((1H-pyrrolo[2,3-b]pyridin-5-yl)oxy)-N-((4-((((1r,4r)-4-hydroxy-4-methylcyclohexyl)methyl)amino)-3-nitrophenyl)sulfonyl)-4-(2-((R)-4-(4-isopropyl-3-methoxybenzyl)-2-(2-isopropylphenyl)piperazin-1-yl)-7-azaspiro[3.5]nonan-7-yl) benzamide] | 0.18 nM | 1.3 nM | 4.9 nM | 3.9 | 1.01 nM |
